Data from patent publication US20220133618A1, “Low Surfactant Personal Care Compositions” (The Procter & Gamble Company, priority 2020, published 2022).

Assays:
[1] = Syringe filter polymer cleaning procedure (syringe method); details: Table 4; controls; Decyl Glucoside 2% starting active before dilution
Method: Procedure for Syringe Filter Polymer Cleaning
1) materials used in syringe cleaning procedure: • A. 0.15% Oil Red 0 dyed >95% pure Glyceryl Trioleate oil (See below—Procedure for preparing 0.15% Oil Red 0 dyed Triolein oil (Glyceryl trioleate)) • B. Syringe Filters: 30 mm, 5 um Nylon syringe filters; (Thermo Fischer Scientific Co, Waltham, Mass.: Part #F2500-50) • C. 24 ml Norm-ject luer (slip tip) syringes Ref #4200-00V0 (These are silicone free syringes) • D. Isopropanol (IPA) • E. Polymer Solutions/mixtures—diluted with distilled water to the desired percentage (typically 0.5% for a polymer only solution and 10% for a full formulation unless otherwise noted in the examples). • F. Plastic drain tubing having a diameter to fit over the slip tip of the syringe filter tightly
Syringe Pump Settings • Syringe Diameter: 20 mm (Note: The volume of liquid dispensed by the syringe is based on the diameter of the syringe and diameter setting must be changed if using different sizes of syringes). • Dispensing Volume set point: 5 mls • Cleaning Dispensing Rate: 5 mls/min • IPA Extraction Rate: 2.5 ml/min
• 1. Coat the slip tip side of the syringe filter (see FIG. 5) using a micro pipettor with 48-50 mg of Oil 0 Red dyed Triolein oil by setting the micro-pipettor to a volume of ˜58 ul to compensate for the lower density of the dyed oil. • 2. Slowly fill the pipette tip with oil. […]

[2] = tested on: keratinocytes on de-epidermized dermis (DED); assay: TEWL (transepidermal water loss) on organotypic epidermis cultures; type: cell-based, human; details: topical treatment 20 minutes, washed, reading after 24 hours; higher value = worse
Text: TEWL (transepidermal water loss) is a common clinical measure used to compare the mildness of surfactant-based formulations for skin (Rogiers 2001; Berardesca and Maibach 1990; Brink et al. 2019; O'Connor, Ogle, and Odio 2016; Thune et al. 1988). TEWL is considered to provide a relative understanding of individual skin barrier quality in relation to onset of disease, environmental impacts and exposure to topical formulations, such as consumer products (Alexander et al. 2018). […]
De-epithelialized dermis (DED) was prepared by removing fat from the skin sample with a scalpel, cutting the skin into squares measuring 1.25 cm^2, and placing the samples in 1M NaCl plus 10× penicillin/streptomycin. […] The following day, the epidermis was carefully peeled off with forceps and dermal tissue was stored in phosphate-buffered saline (PBS) plus 2× penicillin/streptomycin at 4° C. until ready for use. […]
At day 7 at the air-liquid interface, the cultures were treated topically with full or diluted formulas by cotton swab or by pipetting 6-50 ul, depending on product viscosity. […] Once equilibrated the cultures were placed on the lid of a sterile 150 mm petri dish and TEWL readings were taken using a Delfin Vapometer containing a silicone O-ring adaptor provided by the manufacturer. […]

Structure (SMILES)	% Sebum Removed with Syringe Method [1] [%]	TEWL Mean [2]
CCCCCCCCCCO[C@@H]1O[C@H](CO)[C@@H](O)[C@H](O)[C@H]1O [Sample C3, Decyl Glucoside]	51	–
CCCCCCCCCCCCOS(=O)(=O)[O-].[Na+] [SLS (10%)]	–	26.03
